{"source": "patent US20250228820A1", "about": "“METHODS FOR PREVENTING OR SLOWING THE PROGRESSION OF COGNITIVE DECLINE OR IMPAIRMENT IN SUBJECTS DISPLAYING NORMAL COGNITIVE PERFORMANCE” (AGENEBIO, INC., priority 2022, published 2025)", "key": {"[1]": {"experiment": "Levetiracetam level in blood after treatment in the LEV-HFC trial", "assay_type": "in vivo, human", "conditions": "after two-week treatment with levetiracetam 220 mg extended release daily", "description": "(§1) A phase II, randomized, double-blind, placebo-controlled crossover clinical trial of 26 CN subjects (ranging in age from 55 to 75 years) to assess the potential effect of levetiracetam on hippocampal functional connectivity (a risk marker for cognitive decline and cognitive impairment and progression to AD) was conducted. 35 patients were recruited and assessed for eligibility and the 26 eligible subjects were separated into Group A or Group B treatment groups. Group A subjects received an oral placebo tablet daily for two weeks followed by a four-week washout period; then, the subjects received an oral levetiracetam tablet daily for two weeks (i.e., two-week placebo treatment, four-week washout period, and two-week levetiracetam treatment). Group B subjects received treatment using the reverse sequence (i.e., two-week levetiracetam treatment, four-week washout period, and two-week placebo treatment). The tablet was characterized by 220 mg levetiracetam in extended release form, i.e. Tablet D (Table 2) above.\nA total of 25 participants (15 women with a mean [SD] age of 65.9 [3.8] years and 10 men with a mean [SD] age of 66.7 [5.5] years) were enrolled, randomized (12 participants to group A and 13 participants to group B), and completed the study. […]"}, "[2]": {"test_system": "hippocampal functional connectivity", "experiment": "Phase II placebo-controlled crossover trial: hippocampal functional connectivity by resting-state fMRI in cognitively normal subjects", "assay_type": "in vivo, human", "description": "as §1\nFor each scanning session, imaging was carried out on a 3T GE MR750 whole-body scanner (GE Healthcare, Waukesha WI) with a body transmit and a 32-channel head receive coil (Nova Medical, Wilmington MA). Imaging acquisition included T1- and T2-weighted high resolution, anatomical images (TR=2521.27 ms, TE=3.596 ms, Voxel resolution: 0.5×0.5×0.8 mm3, FOV: 25.6 cm, Flip angle: 8°). […]\nTotal Functional connectivity indices (TFCI) were obtained based on the traditional region of interest (ROI)-based method (Chen et al, 2011) in which individual cerebrums were automatically parcellated into 90 regions, per the Automated Anatomical Labeling (AAL) toolbox (3), and the FCI was calculated as the summation of Pearson cross-correlation coefficients between the seed region and all other regions in the cerebrum. […] Second, functional connectivity between each ROI and the other brain regions was calculated using the Pearson cross-correlation analysis. […]"}, "[3]": {"conditions": "cited from earlier work"}}, "note": "“And” between values parts separate entries of the source, which are not always exact repeats. Identical values can stand only once.", "data": [{"compound": "CC[C@@H](C(N)=O)N1CCCC1=O", "note": "[Levetiracetam, (2S)-2-(2-oxopyrrolidin-1-yl) butanamide]", "values": [{"measurement": "LEV [μg] in blood, AVG", "setting": "[1]; average of 25 subjects", "result": 4.3, "unit": "µg"}, {"measurement": "LEV [μg] in blood", "setting": "[1]; individual subjects, listed as LEV", "result": "3 μg and 4.5 μg and 4.8 μg and 6.1 μg and 2.9 μg and 4.1 μg (2×) and 5.1 μg and 4.4 μg (2×) and 6.3 μg and 4.9 μg and 4.2 μg and 3.1 μg and 2.8 μg and 3.8 μg (2×) and 5.8 μg and 5 μg and 3.2 μg and 3.4 μg and 4 μg and 4.7 μg and 2 μg and 8.2 μg"}, {"measurement": "Functional connectivity of the hippocampus network, levetiracetam compared with placebo", "setting": "[2]; 220 mg extended release tablet (Tablet D) daily for two weeks, 25 CN subjects, paired t-test, t=−2.8044, p<0.0098, FIG. 6", "result": "significantly decreased"}, {"measurement": "Period I FC (hippocampal functional connectivity)", "setting": "[2]; individual subjects, first two-week period, levetiracetam 220 mg extended release daily (numbers without *)", "result": "0.209 and 0.602 and 0.148 (2×) and 0.241 and 0.138 and 0.099 and 0.136 and 0.504 and 0.253 and 0.367 and 0.173 and 0.303"}, {"measurement": "Period II FC (hippocampal functional connectivity)", "setting": "[2]; individual subjects, second two-week period after four-week washout, levetiracetam 220 mg extended release daily (numbers without *)", "result": "0.264 and 0.238 and 0.366 and 0.013 and 0.352 and 0.31 and 0.048 and 0.177 (2×) and 0.17 and 0.106 and 0.28"}, {"measurement": "Plasma half-life in elderly", "setting": "[3]; expected in elderly due to decreased renal function", "result": "9 to 10", "unit": "h"}, {"measurement": "Time of peak plasma concentrations", "setting": "[3]; following oral administration", "result": "about 1 hour"}, {"measurement": "Plasma half-life", "setting": "[3]; in vivo", "result": "approximately 7±1 hour"}, {"measurement": "Time to steady state", "setting": "[3]; multiple twice-daily dosing", "result": 2, "unit": "days"}, {"measurement": "Absorption after oral administration", "setting": "[3]; oral", "result": "rapidly and almost completely absorbed"}, {"measurement": "Effect of food on bioavailability", "setting": "[3]; oral", "result": "not affected by food"}]}]}
